# Results published in patent US4247632A (Kikkoman Shoyu Co., Ltd., priority 1978, dated 1981).
# Columns and labels:
# [1] = system: methylguanidine-decomposing enzyme; assay: Inhibition of the enzyme: residual activity after treatment with inhibitor; type: biochemical, Alcaligenes; details: for Residual activity of enzyme (%): activity without inhibitor = 100; for Inhibition of the enzyme (in words): conditions and concentrations of Table 1
# Experimental: A substrate solution having a methylguanidine sulfate concentration of 100 μg/ml is prepared by dissolving methylguanidine sulfate into 0.05 M sodium carbonate-sodium bicarbonate buffer solution (pH 11.0). […] If a precipitate is formed, the precipitate is removed by centrifugation or filtration. Thus, an enzymatic reaction fluid is obtained.
# Then, each 50 μl of the enzymatic reaction fluid or the control is mixed with 1.5 ml of 0.1 mM solution of phenanthraquinone in dimethylformamide and 0.25 ml of 1 M aqueous solution of sodium hydroxide and subjected to reaction at room temperature for 40-50 minutes, and then 0.25 ml of concentrated hydrochloric acid and 2.5 ml of water are added. Then, the relative fluorescence intensities of the resulted reaction mixtures are measured with a fluorophotometer at an exciting wave length of 310 nm and a fluorescence wave length of 390 nm. The decrease in methylguanidine content is calculated from the difference in fluorescence intensities between each reaction mixture for the enzymatic reaction and the control.
# In the expression of activity, a quantity of enzyme enough to decompose 1 μ-mole of methylguanidine per 1 minute at 30° C. is defined as one unit.
# [2] = system: methylguanidine-decomposing enzyme; assay: Stabilization of the enzyme; type: physicochemical, Alcaligenes; details: 10% (V/W) of glycerin added
# Description: The enzyme is stabilized by adding 10% (V/W) of glycerin to it.
# [3] = system: methylguanidine-decomposing enzyme; assay: Action and substrate specificity of the enzyme; type: biochemical, Alcaligenes
# Description: This enzyme decomposes methylguanidine to form methylamine and urea: [drawing 1]
# This enzyme exerts no action upon guanidoacetic acid (glycocyamine) and guanididosuccinic acid.
# [4] = 1 mM inhibitor, 30° C., pH 9, 1 hour
# [5] = 1 mM inhibitor, 30° C., pH 10, 60 minutes
Compound,Inhibition of the enzyme (in words) [1],Action of the enzyme upon the substrate [3],further results
"II [I2, iodine]",markedly inhibited,–,"Residual activity of enzyme (%) ([1]; 1 mM I2, 40° C., pH 7, 1 hour): 0%"
OCC(O)CO [glycerin],–,–,Stabilization of the enzyme [2]: stabilized
"OCCS [2-Mercaptoethanol, 2-mercaptoethanol]",markedly inhibited,–,"Residual activity of enzyme (%) [1, 4]: 0%"
N=C(N)NCC(=O)O [guanidoacetic acid],–,no action,–
"[Cl][Hg][Cl] [HgCl2, mercurie chloride]",markedly inhibited,–,"Residual activity of enzyme (%) [1, 5]: 0%"
"O[C@H](CS)[C@H](O)CS (racemic) [Dithiothreitol, dithiothreitol]",markedly inhibited,–,"Residual activity of enzyme (%) [1, 4]: 0%"
N=C(N)NC(CC(=O)O)C(=O)O (centres unmarked) [guanididosuccinic acid],–,no action,–
"O=[N+]([O-])[O-].[Ag+] [AgNO3, silver nitrate]",markedly inhibited,–,"Residual activity of enzyme (%) [1, 5]: 4%"
CNC(=N)N [methylguanidine],–,decomposes,–
